Results: PubChem BioAssay AID2060617 (Molecular Pharmacology Branch, DTP, NCI, 2025)
“And” between values parts separate entries of the source, which are not always exact repeats. Equal entries are not always repeated.

Test system: 485368-065-R4-J2-PDC spheroids with HUVEC/MSC, viability
Assay: Anticancer human tumor 485368-065-R4-J2-PDC patient-derived pancreatic carcinoma cell line growth inhibition [CLK]
Conditions: for viability, T/C: stronger effect = lower value; active = viability on the fitted dose curve at most 10% of control; inactive = the rest
Outline: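 Patient-derived tumor cells grown as complex spheroids with HUVEC endothelial cells and mesenchymal stem cells, treated with drug combinations. Concentrations descend in half-log steps from near clinical Cmax, or from 10 microM if Cmax unknown.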

[1] = curve of first compound, second compound 0.0316 µM
[2] = curve of first compound, second compound 0.1 µM
[3] = curve of first compound, second compound 0.316 µM
[4] = curve of first compound, second compound 1 µM
[5] = curve of first compound, second compound 3.16 µM
[6] = curve of first compound, second compound 10 µM
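Also: spheroids exposed to compounds for seven days.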
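For viability, T/C in this document: 100% = DMSO vehicle control wells.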

CC(C)CC(NC(=O)C(Cc1ccccc1)NC(=O)c1cnccn1)B(O)O (stereo unspecified) + CNC(=O)c1ccc(Nc2nc(OC3CCCC3)c3c(-c4ccc5nc(C)oc5c4)c[nH]c3n2)c(OC)c1
inactive: viability, T/C (second compound 0.0316 µM, first compound 0.000949 µM) 99.6% | viability, T/C (second compound 0.0316 µM, first compound 0.003 µM) 122% | viability, T/C (second compound 0.0316 µM, first compound 0.00949 µM) 31.1% | viability, T/C (second compound 0.0316 µM, first compound 0.03 µM) 16.4% | viability, T/C (second compound 0.0316 µM, first compound 0.0949 µM) 13.2% | viability, T/C (second compound 0.0316 µM, first compound 0.3 µM) 3.24% | viability, T/C (second compound 0.1 µM, first compound 0.000949 µM) 95.3% | viability, T/C (second compound 0.1 µM, first compound 0.003 µM) 115% | viability, T/C (second compound 0.1 µM, first compound 0.00949 µM) 32.5% | viability, T/C (second compound 0.316 µM, first compound 0.000949 µM) 94.3% | viability, T/C (second compound 0.316 µM, first compound 0.003 µM) 112% | viability, T/C (second compound 0.316 µM, first compound 0.00949 µM) 33.4% | viability, T/C (second compound 1 µM, first compound 0.000949 µM) 102% | viability, T/C (second compound 1 µM, first compound 0.003 µM) 101% | viability, T/C (second compound 1 µM, first compound 0.00949 µM) 28% | viability, T/C (second compound 3.16 µM, first compound 0.000949 µM) 89.4% | viability, T/C (second compound 3.16 µM, first compound 0.003 µM) 89.7% | viability, T/C (second compound 3.16 µM, first compound 0.00949 µM) 17.9% | viability, T/C (second compound 10 µM, first compound 0.000949 µM) 77.9% | viability, T/C (second compound 10 µM, first compound 0.003 µM) 78.2% | viability, T/C (second compound 10 µM, first compound 0.00949 µM) 12.5%
6.69 nM: IC50 [4]
7.19 nM: IC50 [2]
7.21 nM: IC50 [3]
active: viability, T/C (second compound 0.1 µM, first compound 0.03 µM) 13.6% | viability, T/C (second compound 0.1 µM, first compound 0.0949 µM) 11.8% | viability, T/C (second compound 0.1 µM, first compound 0.3 µM) 3.58% | viability, T/C (second compound 0.316 µM, first compound 0.03 µM) 12.5% | viability, T/C (second compound 0.316 µM, first compound 0.0949 µM) 10.1% | viability, T/C (second compound 0.316 µM, first compound 0.3 µM) 3.9% | viability, T/C (second compound 1 µM, first compound 0.03 µM) 12.9% | viability, T/C (second compound 1 µM, first compound 0.0949 µM) 7.65% | viability, T/C (second compound 1 µM, first compound 0.3 µM) 1.74% | viability, T/C (second compound 3.16 µM, first compound 0.03 µM) 7.21% | viability, T/C (second compound 3.16 µM, first compound 0.0949 µM) 5.69% | viability, T/C (second compound 3.16 µM, first compound 0.3 µM) 2.56% | viability, T/C (second compound 10 µM, first compound 0.03 µM) 5.34% | viability, T/C (second compound 10 µM, first compound 0.0949 µM) 4.07% | viability, T/C (second compound 10 µM, first compound 0.3 µM) 1.36%
4.91 nM: IC50 [6]
7.22 nM: IC50 [1]
5.66 nM: IC50 [5]

COc1cccc2c1C(=O)c1c(O)c3c(c(O)c1C2=O)CC(O)(C(=O)CO)CC3OC1CC(N)C(O)C(C)O1 (stereo unspecified) + CNC(=O)c1ccc(Nc2nc(OC3CCCC3)c3c(-c4ccc5nc(C)oc5c4)c[nH]c3n2)c(OC)c1
136 nM: IC50 [5]
270 nM: IC50 [3]
111 nM: IC50 [6]
406 nM: IC50 [2]
445 nM: IC50 [1]
156 nM: IC50 [4]
inactive: viability, T/C (second compound 0.0316 µM, first compound 0.0316 µM) 89.3% | viability, T/C (second compound 0.0316 µM, first compound 0.1 µM) 94.2% | viability, T/C (second compound 0.0316 µM, first compound 0.316 µM) 56.9% | viability, T/C (second compound 0.0316 µM, first compound 1 µM) 31.6% | viability, T/C (second compound 0.0316 µM, first compound 3.16 µM) 8.22% | viability, T/C (second compound 0.0316 µM, first compound 10 µM) 23.9% | viability, T/C (second compound 0.1 µM, first compound 0.0316 µM) 101% | viability, T/C (second compound 0.1 µM, first compound 0.1 µM) 100% | viability, T/C (second compound 0.1 µM, first compound 0.316 µM) 55.9% | viability, T/C (second compound 0.1 µM, first compound 1 µM) 26.9% | viability, T/C (second compound 0.1 µM, first compound 3.16 µM) 7.71% | viability, T/C (second compound 0.1 µM, first compound 10 µM) 22.3% | viability, T/C (second compound 0.316 µM, first compound 0.0316 µM) 101% | viability, T/C (second compound 0.316 µM, first compound 0.1 µM) 86.2% | viability, T/C (second compound 0.316 µM, first compound 0.316 µM) 45% | viability, T/C (second compound 0.316 µM, first compound 1 µM) 18.6% | viability, T/C (second compound 0.316 µM, first compound 3.16 µM) 6.61% | viability, T/C (second compound 0.316 µM, first compound 10 µM) 25.7% | viability, T/C (second compound 1 µM, first compound 0.0316 µM) 91% | viability, T/C (second compound 1 µM, first compound 0.1 µM) 66% | viability, T/C (second compound 1 µM, first compound 0.316 µM) 25.1% | viability, T/C (second compound 1 µM, first compound 1 µM) 11.3% | viability, T/C (second compound 1 µM, first compound 3.16 µM) 6.11% | viability, T/C (second compound 1 µM, first compound 10 µM) 23.9% | viability, T/C (second compound 3.16 µM, first compound 0.0316 µM) 76.6% | viability, T/C (second compound 3.16 µM, first compound 0.1 µM) 61.7% | viability, T/C (second compound 3.16 µM, first compound 0.316 µM) 17.9% | viability, T/C (second compound 3.16 µM, first compound 1 µM) 8.87% | viability, T/C (second compound 3.16 µM, first compound 3.16 µM) 6.5% | viability, T/C (second compound 3.16 µM, first compound 10 µM) 15.5% | viability, T/C (second compound 10 µM, first compound 0.0316 µM) 76.6% | viability, T/C (second compound 10 µM, first compound 0.1 µM) 53.4% | viability, T/C (second compound 10 µM, first compound 0.316 µM) 17.2% | viability, T/C (second compound 10 µM, first compound 1 µM) 7.28% | viability, T/C (second compound 10 µM, first compound 3.16 µM) 7.64% | viability, T/C (second compound 10 µM, first compound 10 µM) 17.4%

CC(C)CC(NC(=O)C(Cc1ccccc1)NC(=O)c1cnccn1)B(O)O (stereo unspecified)
6.88 nM and 7.33 nM: IC50 (curve of compound)
inactive: viability, T/C (compound 0.000949 µM) 89.2% and 97.4% | viability, T/C (compound 0.003 µM) 109% and 134% | viability, T/C (compound 0.00949 µM) 31.1% | viability, T/C (compound 0.03 µM) 23.3% and 18.4% | viability, T/C (compound 0.0949 µM) 12.5% and 15.6% | viability, T/C (compound 0.3 µM) 5.93% and 5.56%
